# Reference: PubChem BioAssay AID1259407 (Chemical Carcinogenesis Research Information System (CCRIS), 2018)
# Calls of active or inactive are those of the source. How the calls were made is not given here.
# Tested on: CCRIS mutagenicity, Ames/micronucleus/aberration tests
# Assay: CCRIS mutagenicity studies
# [1] = Test System: AMES SALMONELLA TYPHIMURIUM, Strain/Indicator: TA98, Metabolic Activation: NONE, Method: PREINCUBATION
# [2] = Test System: AMES SALMONELLA TYPHIMURIUM, Strain/Indicator: TA100, Metabolic Activation: NONE, Method: PREINCUBATION
smiles,measurement,setting,value
O=c1ccc2ccccc2o1,mutagenic call,"End Point: IN VITRO CHROMOSOMAL ABERRATIONS, Test System: CHINESE HAMSTER OVARY CELLS, Metabolic Activation: NONE",inactive; negative
same,mutagenic call,"End Point: IN VITRO CHROMOSOMAL ABERRATIONS, Test System: CHINESE HAMSTER OVARY CELLS, Metabolic Activation: RAT, LIVER, S-9, AROCLOR 1254",active; positive
same,mutagenic call,"End Point: IN VIVO MICRONUCLEUS, Test System: BONE MARROW CELLS, Species: MOUSE, Strain/Sex: SWISS/MALE, FEMALE, Route: GAVAGE",inactive; negative
same,mutagenic call,"Test System: AMES SALMONELLA TYPHIMURIUM, Strain/Indicator: TA98, Metabolic Activation: HAMSTER, LIVER, S-9, AROCLOR 1254 (10%), Method: PREINCUBATION",inactive; negative
same,mutagenic call,"Test System: AMES SALMONELLA TYPHIMURIUM, Strain/Indicator: TA98, Metabolic Activation: NONE, Method: FLUCTUATION (MICROTITER)",inactive; negative
same,mutagenic call,[1],inactive; negative
same,mutagenic call,"Test System: AMES SALMONELLA TYPHIMURIUM, Strain/Indicator: TA98, Metabolic Activation: RAT LIVER S-9, AROCLOR 1254, Method: FLUCTUATION (MICROTITER)",inactive; negative
same,mutagenic call,"Test System: AMES SALMONELLA TYPHIMURIUM, Strain/Indicator: TA98, Metabolic Activation: RAT, LIVER, S-9, AROCLOR 1254 (10%), Method: PREINCUBATION",inactive; negative
same,mutagenic call,"Test System: AMES SALMONELLA TYPHIMURIUM, Strain/Indicator: TA100, Metabolic Activation: HAMSTER, LIVER, S-9, AROCLOR 1254 (10%), Method: PREINCUBATION",active; positive
same,mutagenic call,[2],inactive; negative
same,mutagenic call,"Test System: AMES SALMONELLA TYPHIMURIUM, Strain/Indicator: TA1535, Metabolic Activation: HAMSTER, LIVER, S-9, AROCLOR 1254 (10%), Method: PREINCUBATION",inactive; negative
same,mutagenic call,"Test System: AMES SALMONELLA TYPHIMURIUM, Strain/Indicator: TA1535, Metabolic Activation: NONE, Method: PREINCUBATION",inactive; negative
same,mutagenic call,"Test System: AMES SALMONELLA TYPHIMURIUM, Strain/Indicator: TA1535, Metabolic Activation: RAT, LIVER, S-9, AROCLOR 1254 (10%), Method: PREINCUBATION",inactive; negative
same,mutagenic call,"Test System: AMES SALMONELLA TYPHIMURIUM, Strain/Indicator: TA1537, Metabolic Activation: HAMSTER, LIVER, S-9, AROCLOR 1254 (10%), Method: PREINCUBATION",inactive; negative
same,mutagenic call,"Test System: AMES SALMONELLA TYPHIMURIUM, Strain/Indicator: TA1537, Metabolic Activation: NONE, Method: FLUCTUATION (MICROTITER)",inactive; negative
same,mutagenic call,"Test System: AMES SALMONELLA TYPHIMURIUM, Strain/Indicator: TA1537, Metabolic Activation: NONE, Method: PREINCUBATION",inactive; negative
same,mutagenic call,"Test System: AMES SALMONELLA TYPHIMURIUM, Strain/Indicator: TA1537, Metabolic Activation: RAT LIVER S-9, AROCLOR 1254, Method: FLUCTUATION (MICROTITER)",inactive; negative
same,mutagenic call,"Test System: AMES SALMONELLA TYPHIMURIUM, Strain/Indicator: TA1537, Metabolic Activation: RAT, LIVER, S-9, AROCLOR 1254 (10%), Method: PREINCUBATION",inactive; negative
same,mutagenic call,"Test System: AMES SALMONELLA TYPHIMURIUM, Strain/Indicator: TA7001, Metabolic Activation: NONE, Method: FLUCTUATION (MICROTITER)",inactive; negative
same,mutagenic call,"Test System: AMES SALMONELLA TYPHIMURIUM, Strain/Indicator: TA7001, Metabolic Activation: RAT LIVER S-9, AROCLOR 1254, Method: FLUCTUATION (MICROTITER)",inactive; negative
same,mutagenic call,"Test System: AMES SALMONELLA TYPHIMURIUM, Strain/Indicator: TA7002, Metabolic Activation: NONE, Method: FLUCTUATION (MICROTITER)",inactive; negative
same,mutagenic call,"Test System: AMES SALMONELLA TYPHIMURIUM, Strain/Indicator: TA7002, Metabolic Activation: RAT LIVER S-9, AROCLOR 1254, Method: FLUCTUATION (MICROTITER)",active; positive
same,mutagenic call,"Test System: AMES SALMONELLA TYPHIMURIUM, Strain/Indicator: TA7003, Metabolic Activation: NONE, Method: FLUCTUATION (MICROTITER)",inactive; negative
same,mutagenic call,"Test System: AMES SALMONELLA TYPHIMURIUM, Strain/Indicator: TA7003, Metabolic Activation: RAT LIVER S-9, AROCLOR 1254, Method: FLUCTUATION (MICROTITER)",inactive; negative
same,mutagenic call,"Test System: AMES SALMONELLA TYPHIMURIUM, Strain/Indicator: TA7004, Metabolic Activation: NONE, Method: FLUCTUATION (MICROTITER)",inactive; negative
same,mutagenic call,"Test System: AMES SALMONELLA TYPHIMURIUM, Strain/Indicator: TA7004, Metabolic Activation: RAT LIVER S-9, AROCLOR 1254, Method: FLUCTUATION (MICROTITER)",inactive; negative
same,mutagenic call,"Test System: AMES SALMONELLA TYPHIMURIUM, Strain/Indicator: TA7005, Metabolic Activation: NONE, Method: FLUCTUATION (MICROTITER)",inactive; negative
same,mutagenic call,"Test System: AMES SALMONELLA TYPHIMURIUM, Strain/Indicator: TA7005, Metabolic Activation: RAT LIVER S-9, AROCLOR 1254, Method: FLUCTUATION (MICROTITER)",inactive; negative
same,mutagenic call,"Test System: AMES SALMONELLA TYPHIMURIUM, Strain/Indicator: TA7006, Metabolic Activation: NONE, Method: FLUCTUATION (MICROTITER)",inactive; negative
same,mutagenic call,"Test System: AMES SALMONELLA TYPHIMURIUM, Strain/Indicator: TA7006, Metabolic Activation: RAT LIVER S-9, AROCLOR 1254, Method: FLUCTUATION (MICROTITER)",inactive; negative
same,mutagenic call,"Test System: UDS HUMAN HEPATOCYTES, Strain/Indicator: THY INCORP, Metabolic Activation: NONE, Method: AUTORADIOGRAPHY",inactive; negative
O=[N+]([O-])c1ccc2c(c1)Oc1cc([N+](=O)[O-])ccc1O2,mutagenic call,"Test System: AMES SALMONELLA TYPHIMURIUM, Strain/Indicator: TA98(1,8-DNP6), Metabolic Activation: NONE, Method: PREINCUBATION",active; positive
same,mutagenic call,"Test System: AMES SALMONELLA TYPHIMURIUM, Strain/Indicator: TA98(1,8-DNP6), Metabolic Activation: NONE, Method: SUSPENSION",active; positive
same,mutagenic call,"Test System: AMES SALMONELLA TYPHIMURIUM, Strain/Indicator: TA98(1,8-DNP6), Metabolic Activation: RAT, LIVER, S-9, PCB (5%), Method: PREINCUBATION",active; positive
same,mutagenic call,"Test System: AMES SALMONELLA TYPHIMURIUM, Strain/Indicator: TA98(NR), Metabolic Activation: NONE, Method: PREINCUBATION",inactive; negative
same,mutagenic call,"Test System: AMES SALMONELLA TYPHIMURIUM, Strain/Indicator: TA98(NR), Metabolic Activation: NONE, Method: SUSPENSION",inactive; negative
same,mutagenic call,"Test System: AMES SALMONELLA TYPHIMURIUM, Strain/Indicator: TA98(NR), Metabolic Activation: RAT, LIVER, S-9 (15%), Method: PREINCUBATION",active; positive
same,mutagenic call,"Test System: AMES SALMONELLA TYPHIMURIUM, Strain/Indicator: TA98(NR), Metabolic Activation: RAT, LIVER, S-9, 3-METHYLCHOLANTHRENE (15%), Method: PREINCUBATION",active; positive
same,mutagenic call,"Test System: AMES SALMONELLA TYPHIMURIUM, Strain/Indicator: TA98(NR), Metabolic Activation: RAT, LIVER, S-9, BETA-NAPHTHOFLAVONE (15%), Method: PREINCUBATION",active; positive
same,mutagenic call,"Test System: AMES SALMONELLA TYPHIMURIUM, Strain/Indicator: TA98(NR), Metabolic Activation: RAT, LIVER, S-9, PCB (5 OR 15%), Method: PREINCUBATION",active; positive
same,mutagenic call,"Test System: AMES SALMONELLA TYPHIMURIUM, Strain/Indicator: TA98(NR), Metabolic Activation: RAT, LIVER, S-9, PHENOBARBITAL (15%), Method: PREINCUBATION",active; positive
same,mutagenic call,[1],active; positive
same,mutagenic call,"Test System: AMES SALMONELLA TYPHIMURIUM, Strain/Indicator: TA98, Metabolic Activation: NONE, Method: SUSPENSION",active; positive
same,mutagenic call,"Test System: AMES SALMONELLA TYPHIMURIUM, Strain/Indicator: TA98, Metabolic Activation: RAT, LIVER, S-9, PCB (5%), Method: PREINCUBATION",active; positive
same,mutagenic call,"Test System: AMES SALMONELLA TYPHIMURIUM, Strain/Indicator: TA98, Metabolic Activation: RAT, LIVER, S-9, PCB, Method: SUSPENSION",active; positive
same,mutagenic call,[2],inactive; negative
same,mutagenic call,"Test System: AMES SALMONELLA TYPHIMURIUM, Strain/Indicator: TA100, Metabolic Activation: NONE, Method: SUSPENSION",inactive; negative
same,mutagenic call,"Test System: AMES SALMONELLA TYPHIMURIUM, Strain/Indicator: TA100, Metabolic Activation: RAT, LIVER, S-9, PCB (5%), Method: PREINCUBATION",inactive; negative
same,mutagenic call,"Test System: AMES SALMONELLA TYPHIMURIUM, Strain/Indicator: TA100, Metabolic Activation: RAT, LIVER, S-9, PCB, Method: SUSPENSION",active; positive
c1cc2ccc3ccnc4ccc(c1)c2c34,mutagenic call,"Test System: AMES SALMONELLA TYPHIMURIUM, Strain/Indicator: TA98, Metabolic Activation: NONE, Method: STANDARD PLATE",active; positive
same,mutagenic call,"Test System: AMES SALMONELLA TYPHIMURIUM, Strain/Indicator: TA98, Metabolic Activation: RAT, LIVER, S-9, AROCLOR 1254, Method: STANDARD PLATE",active; positive
same,mutagenic call,"Test System: AMES SALMONELLA TYPHIMURIUM, Strain/Indicator: TA100, Metabolic Activation: NONE, Method: STANDARD PLATE",inactive; negative
same,mutagenic call,"Test System: AMES SALMONELLA TYPHIMURIUM, Strain/Indicator: TA100, Metabolic Activation: RAT, LIVER, S-9, AROCLOR 1254, Method: STANDARD PLATE",active; positive
